# Source: paper PMC10009787 (ACS Medicinal Chemistry Letters, 2023)
# Values joined by “and” are separate entries in the source; they are usually repeats but may differ in a detail not shown here. Equal entries are not always repeated. Where two headings read alike, the source gives them in different places.
# How the values were obtained:
# ERBB4 (HER4) = ERBB4 (HER4) (Homo sapiens, UniProt Q15303); test: SelectScreen kinase profiling; assay type: biochemical; details: average of duplicate
# ABL1 = ABL1 (Homo sapiens, UniProt P00519); test: SelectScreen kinase profiling; assay type: biochemical; details: average of duplicate
# KDR (VEGFR2) = KDR (VEGFR2) (Homo sapiens, UniProt P35968); test: SelectScreen kinase profiling; assay type: biochemical; details: average of duplicate
# TNK2 (ACK) = TNK2 (ACK) (Homo sapiens, UniProt Q07912); test: SelectScreen kinase profiling; assay type: biochemical; details: average of duplicate
# LYN B = LYN B (Homo sapiens, UniProt P07948); test: SelectScreen kinase profiling; assay type: biochemical; details: average of duplicate
# RET M918T = RET M918T (Homo sapiens, UniProt P07949, M918T); test: SelectScreen kinase profiling; assay type: biochemical; details: average of duplicate
# EGFR (ErbB1) L858R = EGFR (ErbB1) L858R (Homo sapiens, UniProt P00533, L858R); test: SelectScreen kinase profiling; assay type: biochemical; details: average of duplicate
# HCK = HCK (Homo sapiens, UniProt P08631); test: SelectScreen kinase profiling / Z′-Lyte kinase assay
# TNK1 = TNK1 (Homo sapiens, UniProt Q13470); test: SelectScreen kinase profiling; assay type: biochemical; details: average of duplicate
# EGFR (ErbB1) d746-750 = EGFR (ErbB1) d746-750 (Homo sapiens, UniProt P00533, DEL746-750); test: SelectScreen kinase profiling; assay type: biochemical; details: average of duplicate
# SRC = SRC (Homo sapiens, UniProt P12931); test: SelectScreen kinase profiling / Z′-Lyte kinase assay
# CSK = CSK (Homo sapiens, UniProt P41240); test: SelectScreen kinase profiling; assay type: biochemical; details: average of duplicate
# FLT3 = FLT3 (Homo sapiens, UniProt P36888); test: SelectScreen kinase profiling; assay type: biochemical; details: average of duplicate
# CSNK1E (CK1 epsilon) = CSNK1E (CK1 epsilon) (Homo sapiens, UniProt P49674); test: SelectScreen kinase profiling; assay type: biochemical; details: average of duplicate
# LCK = LCK (Homo sapiens, UniProt P06239); test: SelectScreen kinase profiling; assay type: biochemical; details: average of duplicate
# BMX = target: T1, BMX (Homo sapiens, UniProt P51813); test: SelectScreen kinase profiling / Z′-Lyte kinase assay
# T1 sequence (P51813 1-675): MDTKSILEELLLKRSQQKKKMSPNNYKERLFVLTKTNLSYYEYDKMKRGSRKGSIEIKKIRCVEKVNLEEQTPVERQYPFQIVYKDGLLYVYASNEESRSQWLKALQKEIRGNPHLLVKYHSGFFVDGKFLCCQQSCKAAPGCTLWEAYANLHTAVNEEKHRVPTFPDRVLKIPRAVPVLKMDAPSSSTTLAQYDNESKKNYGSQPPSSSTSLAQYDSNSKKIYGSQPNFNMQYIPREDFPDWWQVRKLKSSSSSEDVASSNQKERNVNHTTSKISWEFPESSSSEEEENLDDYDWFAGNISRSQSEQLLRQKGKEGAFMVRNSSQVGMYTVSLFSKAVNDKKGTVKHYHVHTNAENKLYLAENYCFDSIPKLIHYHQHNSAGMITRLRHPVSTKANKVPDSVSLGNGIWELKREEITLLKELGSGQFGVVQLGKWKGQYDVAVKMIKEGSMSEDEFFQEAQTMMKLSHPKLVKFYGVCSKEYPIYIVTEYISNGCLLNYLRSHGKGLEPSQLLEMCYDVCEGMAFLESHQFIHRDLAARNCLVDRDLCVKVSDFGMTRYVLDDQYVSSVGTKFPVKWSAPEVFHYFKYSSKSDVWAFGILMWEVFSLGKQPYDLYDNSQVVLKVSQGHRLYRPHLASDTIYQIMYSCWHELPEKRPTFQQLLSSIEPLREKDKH
# RET = RET (Homo sapiens, UniProt P07949); test: SelectScreen kinase profiling; assay type: biochemical; details: average of duplicate
# FGFR1 = FGFR1 (Homo sapiens, UniProt P11362); test: SelectScreen kinase profiling; assay type: biochemical; details: average of duplicate
# [1] = BTK selectivity from IC50 values
# Chain of SRC (P12931 whole entry): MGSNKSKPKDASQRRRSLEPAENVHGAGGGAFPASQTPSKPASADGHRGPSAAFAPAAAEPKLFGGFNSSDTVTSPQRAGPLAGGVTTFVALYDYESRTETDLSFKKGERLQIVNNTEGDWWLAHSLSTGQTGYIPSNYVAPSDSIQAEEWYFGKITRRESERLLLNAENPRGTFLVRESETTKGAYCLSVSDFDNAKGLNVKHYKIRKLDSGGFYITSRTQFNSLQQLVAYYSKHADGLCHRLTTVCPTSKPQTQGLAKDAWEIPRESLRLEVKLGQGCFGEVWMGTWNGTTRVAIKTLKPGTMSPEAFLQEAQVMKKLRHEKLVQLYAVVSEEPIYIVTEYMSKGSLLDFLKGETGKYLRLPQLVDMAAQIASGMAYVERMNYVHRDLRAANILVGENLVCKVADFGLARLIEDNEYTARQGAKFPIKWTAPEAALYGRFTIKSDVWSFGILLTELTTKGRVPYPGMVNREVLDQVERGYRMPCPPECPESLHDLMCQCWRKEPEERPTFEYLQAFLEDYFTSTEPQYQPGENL
# Chain of HCK (P08631 whole entry): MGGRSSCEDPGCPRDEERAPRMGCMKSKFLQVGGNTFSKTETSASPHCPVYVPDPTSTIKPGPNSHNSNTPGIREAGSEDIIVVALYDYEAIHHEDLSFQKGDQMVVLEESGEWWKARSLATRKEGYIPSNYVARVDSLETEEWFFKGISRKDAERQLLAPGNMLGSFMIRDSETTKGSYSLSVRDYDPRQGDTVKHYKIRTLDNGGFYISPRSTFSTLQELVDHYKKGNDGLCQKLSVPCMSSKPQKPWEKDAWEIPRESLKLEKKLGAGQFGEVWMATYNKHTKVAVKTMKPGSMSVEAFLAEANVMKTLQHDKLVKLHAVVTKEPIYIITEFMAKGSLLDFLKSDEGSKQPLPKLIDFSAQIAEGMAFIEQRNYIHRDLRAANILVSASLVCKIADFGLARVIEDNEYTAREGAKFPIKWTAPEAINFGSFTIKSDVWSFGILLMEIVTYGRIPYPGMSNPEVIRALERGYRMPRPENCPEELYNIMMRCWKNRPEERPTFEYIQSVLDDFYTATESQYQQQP
# Chain of LYN B (P07948 1-491 isoform P07948-2): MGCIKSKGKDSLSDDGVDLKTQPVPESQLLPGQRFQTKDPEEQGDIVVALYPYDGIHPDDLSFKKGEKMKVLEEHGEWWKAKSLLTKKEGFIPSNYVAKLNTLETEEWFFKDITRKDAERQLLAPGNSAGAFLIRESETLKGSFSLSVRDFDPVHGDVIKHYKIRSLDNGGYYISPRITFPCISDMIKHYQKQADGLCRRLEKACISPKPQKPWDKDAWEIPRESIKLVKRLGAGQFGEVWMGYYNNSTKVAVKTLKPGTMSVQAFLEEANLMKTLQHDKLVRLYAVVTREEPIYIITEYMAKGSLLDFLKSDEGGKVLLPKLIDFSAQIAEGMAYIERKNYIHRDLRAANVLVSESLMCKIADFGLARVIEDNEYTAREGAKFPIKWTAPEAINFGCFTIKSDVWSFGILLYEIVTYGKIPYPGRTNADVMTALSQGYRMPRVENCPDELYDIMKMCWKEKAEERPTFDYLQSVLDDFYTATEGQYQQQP
# Chain of EGFR (ErbB1) L858R (P00533 25-1210 L858R): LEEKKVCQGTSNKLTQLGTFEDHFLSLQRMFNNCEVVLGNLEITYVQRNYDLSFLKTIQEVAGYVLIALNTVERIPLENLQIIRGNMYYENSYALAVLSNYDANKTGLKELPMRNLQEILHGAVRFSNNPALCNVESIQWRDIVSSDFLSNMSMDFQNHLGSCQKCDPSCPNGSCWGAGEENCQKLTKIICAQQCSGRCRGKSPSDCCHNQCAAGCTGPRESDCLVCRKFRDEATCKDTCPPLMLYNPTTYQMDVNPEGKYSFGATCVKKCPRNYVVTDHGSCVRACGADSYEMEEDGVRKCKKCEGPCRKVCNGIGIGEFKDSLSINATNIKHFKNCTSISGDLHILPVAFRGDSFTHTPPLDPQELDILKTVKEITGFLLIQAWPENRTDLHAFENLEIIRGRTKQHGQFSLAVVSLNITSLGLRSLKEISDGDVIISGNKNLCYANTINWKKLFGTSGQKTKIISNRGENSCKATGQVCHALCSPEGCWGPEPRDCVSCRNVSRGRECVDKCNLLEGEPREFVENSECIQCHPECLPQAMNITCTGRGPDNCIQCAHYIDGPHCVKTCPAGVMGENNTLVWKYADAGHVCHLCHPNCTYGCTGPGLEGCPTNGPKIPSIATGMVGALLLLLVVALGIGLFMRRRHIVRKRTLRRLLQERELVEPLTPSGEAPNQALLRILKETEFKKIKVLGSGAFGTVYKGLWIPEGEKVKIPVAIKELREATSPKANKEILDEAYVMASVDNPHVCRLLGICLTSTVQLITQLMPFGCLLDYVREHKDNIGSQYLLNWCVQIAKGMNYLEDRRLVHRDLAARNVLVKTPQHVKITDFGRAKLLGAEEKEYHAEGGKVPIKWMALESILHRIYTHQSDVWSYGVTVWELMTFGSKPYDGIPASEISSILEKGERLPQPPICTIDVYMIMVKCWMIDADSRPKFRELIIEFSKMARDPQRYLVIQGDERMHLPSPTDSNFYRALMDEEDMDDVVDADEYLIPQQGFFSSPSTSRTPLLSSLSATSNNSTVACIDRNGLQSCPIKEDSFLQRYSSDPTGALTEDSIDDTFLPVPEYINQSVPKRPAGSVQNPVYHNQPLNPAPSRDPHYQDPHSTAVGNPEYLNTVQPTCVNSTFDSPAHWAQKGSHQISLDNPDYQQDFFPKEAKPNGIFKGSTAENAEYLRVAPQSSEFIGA
# Chain of CSK (P41240 whole entry): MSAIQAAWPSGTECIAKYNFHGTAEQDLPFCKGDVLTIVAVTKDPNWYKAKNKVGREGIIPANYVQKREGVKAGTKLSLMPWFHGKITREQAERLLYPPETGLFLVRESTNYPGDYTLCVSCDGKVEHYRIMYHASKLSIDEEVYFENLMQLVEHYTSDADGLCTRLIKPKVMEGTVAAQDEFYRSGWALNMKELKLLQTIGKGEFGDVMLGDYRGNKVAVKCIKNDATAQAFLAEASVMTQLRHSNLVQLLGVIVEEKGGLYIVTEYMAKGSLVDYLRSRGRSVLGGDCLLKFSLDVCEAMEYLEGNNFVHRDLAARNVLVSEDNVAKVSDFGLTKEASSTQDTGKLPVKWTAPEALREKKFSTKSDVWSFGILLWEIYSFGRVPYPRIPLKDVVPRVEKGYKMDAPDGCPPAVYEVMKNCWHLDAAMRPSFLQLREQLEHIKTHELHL
# Chain of RET M918T (P07949 658-1114 M918T limits assumed): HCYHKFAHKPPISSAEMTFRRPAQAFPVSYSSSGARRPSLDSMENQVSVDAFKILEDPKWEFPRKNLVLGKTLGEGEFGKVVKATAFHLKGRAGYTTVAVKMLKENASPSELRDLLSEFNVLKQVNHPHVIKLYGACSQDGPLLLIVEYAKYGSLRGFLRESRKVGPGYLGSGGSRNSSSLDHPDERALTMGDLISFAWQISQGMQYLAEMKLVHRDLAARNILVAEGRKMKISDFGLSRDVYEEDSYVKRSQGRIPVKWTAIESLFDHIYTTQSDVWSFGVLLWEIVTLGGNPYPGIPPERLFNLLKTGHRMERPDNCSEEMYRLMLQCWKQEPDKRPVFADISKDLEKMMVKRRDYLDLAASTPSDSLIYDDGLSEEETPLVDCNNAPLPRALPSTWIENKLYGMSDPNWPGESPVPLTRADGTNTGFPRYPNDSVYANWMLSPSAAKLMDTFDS
# Chain of CSNK1E (CK1 epsilon) (P49674 whole entry): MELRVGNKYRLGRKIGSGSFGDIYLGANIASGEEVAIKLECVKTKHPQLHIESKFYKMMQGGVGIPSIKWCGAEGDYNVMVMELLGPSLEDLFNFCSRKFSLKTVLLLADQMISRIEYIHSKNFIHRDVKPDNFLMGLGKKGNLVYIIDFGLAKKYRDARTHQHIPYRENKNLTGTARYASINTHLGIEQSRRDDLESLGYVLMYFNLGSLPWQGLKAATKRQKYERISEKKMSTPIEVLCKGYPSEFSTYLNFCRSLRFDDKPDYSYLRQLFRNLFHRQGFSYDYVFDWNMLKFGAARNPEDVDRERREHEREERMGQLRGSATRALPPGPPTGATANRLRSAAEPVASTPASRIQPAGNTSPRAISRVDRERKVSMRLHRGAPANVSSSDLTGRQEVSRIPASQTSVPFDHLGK
# Chain of LCK (P06239 whole entry): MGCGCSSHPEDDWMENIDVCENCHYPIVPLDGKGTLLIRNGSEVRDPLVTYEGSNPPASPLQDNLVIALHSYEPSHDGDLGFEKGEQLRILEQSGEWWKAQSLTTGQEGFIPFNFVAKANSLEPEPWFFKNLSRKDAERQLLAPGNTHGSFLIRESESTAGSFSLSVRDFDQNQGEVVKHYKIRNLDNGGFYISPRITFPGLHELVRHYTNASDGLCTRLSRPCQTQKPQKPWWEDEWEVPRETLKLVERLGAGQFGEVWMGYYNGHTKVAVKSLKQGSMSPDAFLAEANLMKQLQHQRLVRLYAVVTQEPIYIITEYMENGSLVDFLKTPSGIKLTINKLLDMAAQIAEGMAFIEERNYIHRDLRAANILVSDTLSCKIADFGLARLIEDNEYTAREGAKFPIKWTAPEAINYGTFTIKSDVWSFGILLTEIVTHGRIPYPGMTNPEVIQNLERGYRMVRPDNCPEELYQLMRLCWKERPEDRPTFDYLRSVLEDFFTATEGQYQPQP
smiles,measurement,setting,value
C=CC(=O)N1CCCC(n2nc(-c3c(C)cc(Oc4ccccc4)cc3C)c3c(N)ncnc32)C1 (stereo in doubt) [Compound 3],inhibition at 1 µM,ERBB4 (HER4),93%
same,inhibition at 1 µM,ABL1,0%
same,inhibition at 1 µM,KDR (VEGFR2),5%
same,inhibition at 1 µM,TNK2 (ACK),4%
same,inhibition at 1 µM,LYN B,28%
same,inhibition at 1 µM,RET M918T,6%
same,inhibition at 1 µM,EGFR (ErbB1) L858R,2%
same,inhibition at 1 µM,HCK,19%
same,"HCK, BTK/Kinase",HCK; [1],180 x
same,IC50,"HCK; HCK IC50, Z′-Lyte, [ATP] Km app, 1 h incubation, duplicate",2310 nM
same,Hillslope,HCK; HCK IC50 curve,1.00
same,inhibition at 0.000495 µM,HCK; read-out: % Inhibition Point 1,10%
same,inhibition at 0.00152 µM,HCK; read-out: % Inhibition Point 1,9%
same,inhibition at 0.00457 µM,HCK; read-out: % Inhibition Point 1,10%
same,inhibition at 0.0137 µM,HCK; read-out: % Inhibition Point 1,6%
same,inhibition at 0.0412 µM,HCK; read-out: % Inhibition Point 1,9%
same,inhibition at 0.123 µM,HCK; read-out: % Inhibition Point 1,10%
same,inhibition at 0.37 µM,HCK; read-out: % Inhibition Point 1,19%
same,inhibition at 1.11 µM,HCK; read-out: % Inhibition Point 1,32%
same,inhibition at 3.33 µM,HCK; read-out: % Inhibition Point 1,48%
same,inhibition at 10 µM,HCK; read-out: % Inhibition Point 1,62%
same,inhibition at 0.000495 µM,HCK; read-out: % Inhibition Point 2,7%
same,inhibition at 0.00152 µM,HCK; read-out: % Inhibition Point 2,7%
same,inhibition at 0.00457 µM,HCK; read-out: % Inhibition Point 2,5%
same,inhibition at 0.0137 µM,HCK; read-out: % Inhibition Point 2,10%
same,inhibition at 0.0412 µM,HCK; read-out: % Inhibition Point 2,8%
same,inhibition at 0.123 µM,HCK; read-out: % Inhibition Point 2,15%
same,inhibition at 0.37 µM,HCK; read-out: % Inhibition Point 2,15%
same,inhibition at 1.11 µM,HCK; read-out: % Inhibition Point 2,29%
same,inhibition at 3.33 µM,HCK; read-out: % Inhibition Point 2,49%
same,inhibition at 10 µM,HCK; read-out: % Inhibition Point 2,65%
same,inhibition at 1 µM,TNK1,2%
same,inhibition at 1 µM,EGFR (ErbB1) d746-750,23%
same,IC50,SRC,1710 nM
same,inhibition at 1 µM,SRC,43%
same,"SRC, BTK/Kinase",SRC; [1],134 x
same,Hillslope,SRC; SRC IC50 curve,0.49
same,inhibition at 0.000495 µM,SRC; read-out: % Inhibition Point 1,2%
same,inhibition at 0.00152 µM,SRC; read-out: % Inhibition Point 1,15%
same,inhibition at 0.00457 µM,SRC; read-out: % Inhibition Point 1,19%
same,inhibition at 0.0137 µM,SRC; read-out: % Inhibition Point 1,23%
same,inhibition at 0.0412 µM,SRC; read-out: % Inhibition Point 1,19%
same,inhibition at 0.123 µM,SRC; read-out: % Inhibition Point 1,30%
same,inhibition at 0.37 µM,SRC; read-out: % Inhibition Point 1,38%
same,inhibition at 1.11 µM,SRC; read-out: % Inhibition Point 1,57%
same,inhibition at 3.33 µM,SRC; read-out: % Inhibition Point 1,76%
same,inhibition at 10 µM,SRC; read-out: % Inhibition Point 1,80%
same,inhibition at 0.000495 µM,SRC; read-out: % Inhibition Point 2,-2%
same,inhibition at 0.00152 µM,SRC; read-out: % Inhibition Point 2,9%
same,inhibition at 0.00457 µM,SRC; read-out: % Inhibition Point 2,20%
same,inhibition at 0.0137 µM,SRC; read-out: % Inhibition Point 2,18%
same,inhibition at 0.0412 µM,SRC; read-out: % Inhibition Point 2,20%
same,inhibition at 0.123 µM,SRC; read-out: % Inhibition Point 2,28%
same,inhibition at 0.37 µM,SRC; read-out: % Inhibition Point 2,42%
same,inhibition at 1.11 µM,SRC; read-out: % Inhibition Point 2,58%
same,inhibition at 3.33 µM,SRC; read-out: % Inhibition Point 2,81%
same,inhibition at 10 µM,SRC; read-out: % Inhibition Point 2,88%
same,remaining activity at 1 µM,SRC; read-out: SRC percent of control,57%
same,inhibition at 1 µM,CSK,15%
same,inhibition at 1 µM,FLT3,13%
same,inhibition at 1 µM,CSNK1E (CK1 epsilon),9%
same,inhibition at 1 µM,LCK,74%
same,inhibition at 1 µM,BMX,94%
same,IC50,"BMX; BMX IC50, Z′-Lyte, [ATP] Km app, 1 h incubation, duplicate",5.7 nM and 5.67 nM
same,Hillslope,BMX; BMX IC50 curve,1.56
same,inhibition at 0.000495 µM,BMX; read-out: % Inhibition Point 1,6%
same,inhibition at 0.00152 µM,BMX; read-out: % Inhibition Point 1,16%
same,inhibition at 0.00457 µM,BMX; read-out: % Inhibition Point 1,48%
same,inhibition at 0.0137 µM,BMX; read-out: % Inhibition Point 1,78%
same,inhibition at 0.0412 µM,BMX; read-out: % Inhibition Point 1,94%
same,inhibition at 0.123 µM,BMX; read-out: % Inhibition Point 1,102%
same,inhibition at 0.37 µM,BMX; read-out: % Inhibition Point 1,101%
same,inhibition at 1.11 µM,BMX; read-out: % Inhibition Point 1,98%
same,inhibition at 3.33 µM,BMX; read-out: % Inhibition Point 1,99%
same,inhibition at 10 µM,BMX; read-out: % Inhibition Point 1,98%
same,inhibition at 0.000495 µM,BMX; read-out: % Inhibition Point 2,10%
same,inhibition at 0.00152 µM,BMX; read-out: % Inhibition Point 2,18%
same,inhibition at 0.00457 µM,BMX; read-out: % Inhibition Point 2,42%
same,inhibition at 0.0137 µM,BMX; read-out: % Inhibition Point 2,83%
same,inhibition at 0.0412 µM,BMX; read-out: % Inhibition Point 2,101%
same,inhibition at 0.123 µM,BMX; read-out: % Inhibition Point 2,97%
same,inhibition at 0.37 µM,BMX; read-out: % Inhibition Point 2,98%
same,inhibition at 1.11 µM,BMX; read-out: % Inhibition Point 2,102%
same,inhibition at 3.33 µM,BMX; read-out: % Inhibition Point 2,100%
same,inhibition at 10 µM,BMX; read-out: % Inhibition Point 2,102%
same,inhibition at 1 µM,RET,5%
same,inhibition at 1 µM,FGFR1,-1%
